Legend:
Assay type in all cases: in vivo, human
[1] = test system: post-menopausal women with heart failure; assay: maximal oxygen consumption (MVO2) by ergospirometry
Method: Thirty-two (32) patients enrolled in the trial.
The following follow-ups were conducted: six weeks (B); twelve weeks (B+C); 18 weeks (B); and 24 weeks (B+C).
Maximal oxygen consumption (“MVO2;” also “VO2 max”) is the maximum volume of oxygen that the body can consume during intense, whole-body exercise, while breathing air at sea level. This volume is expressed as a rate, which is in ml/kg/min. As oxygen consumption is linearly related to energy expenditure, the measurement of oxygen consumption is an indirect measurement of an individual's maximal capacity to do work aerobically.

[2] = test system: post-menopausal women with heart failure; assay: muscle isometric strength, maximal voluntary contraction (MVC)
Method: (§1) Thirty-two (32) patients enrolled in the trial. […] Testosterone was administered to the patients as Intrinsa, which is available in Europe.
(§2) The clinical trial design involved: (A) evaluation of inclusion/exclusion criteria and study agreement; (B) visit (blood pressure, heart rate and NYHA classification); (C) six minute walking test, endothelial function, ergospirometry (when possible), muscle strength (isometric and isokinetic) and blood samples; and then (D) randomization to testosterone or placebo. The following follow-ups were conducted: six weeks (B); twelve weeks (B+C); 18 weeks (B); and 24 weeks (B+C).
Isometric strength was the highest force developed by patients in three, 5-second maximal voluntary contractions (“MVC”) separated by 1 minute of rest. The knee angle was fixed at 80° (full extension considered 0°). Results are reported at Tables 9-10 and FIGS. 8-10.

[3] = test system: post-menopausal women with heart failure; assay: six minute walking test (6MWT), exercise tolerance; details: for 6MWT distance walked: 300 mcg/day transdermal patch
Method: as §1, §2
In the 6MWT, each patient started by standing at a known beginning location point. Each patient then walked as much as possible within a 6-minute timeframe. At the end of the 6-minute timeframe, the ending location of each patient was identified. The distance each patient walked was calculated by measuring (in meters) the distance between the beginning and end points for each patient.

[4] = test system: post-menopausal women with heart failure; assay: muscle isokinetic strength, peak torque
Method: as §1, §2
Isokinetic strength was assessed by evaluating the highest peak torque achieved in a five maximal repetition test of concentric knee extension/flexion performed at 90 degree/sec. The range of motion was 50°. Results are reported at Tables 11-12 and FIGS. 11-13.

[5] = test system: post-menopausal women with heart failure; assay: drop-outs and adverse events during the clinical study; details: testosterone group of 20 patients
Method: as §1
During the clinical study, two patients dropped out of the testosterone group, and one patient dropped out of the placebo group. […] The patient who dropped out of the placebo group was a no-show at the 6-week meeting and was reported to have stopped the treatment. Of the testosterone group, six patients referred mild skin irritation at the patch site and continued therapy. Of the placebo group, two patients referred mild skin irritation at the patch site and continued therapy. […] These two patients continued the testosterone treatment. Two patients in the placebo group had worsening heart failure that required hospital admission (one patient had one episode of worsening heart failure; the other patient had two episodes of worsening heart failure). These two patients continued with the patch.

[6] = test system: post-menopausal women with heart failure; assay: high-density lipoprotein (HDL) measurement
Method: as §1, §2
High-density lipoprotein (“HDL”) was measured.

[7] = test system: post-menopausal women with heart failure; assay: NYHA classification improvement
Method: as §1, §2
NYHA Classification was determined for each individual at three months and at six months of treatment.

## C[C@]12CC[C@H]3[C@@H](CCC4=CC(=O)CC[C@@]43C)[C@@H]1CC[C@@H]2O [Testosterone, testosterone]
[1]; 3 months
  MVO2 percent change from baseline: 21% change
[1]; 6 months
  MVO2 percent change from baseline: 28% change
[1]; 6 months, listed as testosterone
  MVO2 percent change from baseline: over 25 % change
[1]; baseline, testosterone group
  maximal oxygen consumption peak (MVO2): 10.54 mL/min/kg
[2]; 3 months
  MVC percent change from baseline: 37.8% change
  isometric strength, maximal voluntary contraction (MVC): 89.4 N
[2]; 6 months
  MVC percent change from baseline: 47.6% change
  isometric strength, maximal voluntary contraction (MVC): 95.7 N
[2]; baseline, testosterone group
  isometric strength, maximal voluntary contraction (MVC): 64.85 N
[3]; 3 months
  6MWT percent change from baseline: 35.7% change
  6MWT distance walked: 353 m
[3]; 3 months vs baseline
  6MWT change in distance walked: 93 Δ m
[3]; 6 months
  6MWT percent change from baseline: 39.2% change
  6MWT distance walked: 362 m
[3]; 6 months vs baseline
  6MWT change in distance walked: 102 Δ m
[3]; baseline, testosterone group
  6MWT distance walked: 260 m
[4]; 3 months
  isokinetic strength, peak torque: 58.85 N/m
  peak torque percent change from baseline: 42.32% change
[4]; 6 months
  isokinetic strength, peak torque: 63.82 N/m
  peak torque percent change from baseline: 54.34% change
[4]; baseline, testosterone group
  isokinetic strength, peak torque: 41.35 N/m
[5]
  patients who dropped out: two
  patients with generalized prurigo (without lesions on the skin), discontinued treatment after 3 weeks: one
  patients with mild skin irritation at the patch site, continued therapy: six
[5]; during the follow-up
  patients with one episode of worsening of heart failure requiring hospital admission: Two
[6]; 3 months
  HDL Percent Changes: 19%
  HDL level: 43.24 mg/dL
[6]; 6 months
  HDL Percent Changes: 25%
  HDL level: 43.15 mg/dL
[6]; baseline, testosterone group
  HDL level: 36.9 mg/dL
[7]; 6 months
  Percent of patients with improvement of NYHA Class and/or improvement of >15% 6 MWT (% Response): 80%
[7]; during 6 months of treatment
  Percent change in NYHA Class of patients: NYHA 0: 50%
  Percent change in NYHA Class of patients: NYHA + 1: 11%
  Percent change in NYHA Class of patients: NYHA − 1: 38.8%
